Test results taken from US20130084322A1, “DRUG-IMPREGNATED BIODEGRADABLE STENT AND METHODS OF MAKING THE SAME” (Tim Wu, priority 2010, published 2013).
Entries after “also recorded” stand apart in the source; their conditions may differ.

Legend:
[1] = HPLC analysis of paclitaxel in the formed tube/stent (stability to extrusion); type: physicochemical; settings: extraction in 50% ethanol and 50% methanol overnight at room temperature; FIG. 2
Method: The 10 μl extracting solutions were further analyzed by HPLC (HP16 series 1090, Hewlett-Packard Co. Palo Alto, Calif.). The samples were analyzed on a C18-reverse phase column (HP: 4.6×100 mm RP18) using a mobile phase consisting of 0.005% TFA buffer (0.05 ml Trifluoroacetic acid in 1000 ml acetonitrile) delivered at a flow rate of 1.0 mL/min.

[2] = after releasing from stent; through specific binding to binding proteins; cited from earlier work

| Compound | stability of paclitaxel during extrusion (HPLC peaks, pre-extrusion vs stent samples) [1] | retention in blood vessel wall [2] |
| --- | --- | --- |
| CC(=O)O[C@H]1C(=O)[C@@]2(C)[C@H]([C@H](OC(=O)c3ccccc3)[C@]3(O)C[C@H](OC(=O)[C@H](O)[C@@H](NC(=O)c4ccccc4)c4ccccc4)C(C)=C1C3(C)C)[C@]1(OC(C)=O)CO[C@@H]1C[C@@H]2O [paclitaxel] | not decomposed during extrusion; also recorded: survived the elevated extrusion temperature and are stable inside the stent strut | – |
| CO[C@H]1C[C@@H]2CC[C@@H](C)[C@@](O)(O2)C(=O)C(=O)N2CCCC[C@H]2C(=O)O[C@H]([C@H](C)C[C@@H]2CC[C@@H](O)[C@H](OC)C2)CC(=O)[C@H](C)/C=C(\C)[C@@H](O)[C@@H](OC)C(=O)[C@H](C)C[C@H](C)/C=C/C=C/C=C/1C [sirolimus] | – | up to three days |
